Measurements published in patent US8663646B2, “P53 peptide vaccine” (priority 2007, dated 2014).
Where two headings read alike, the source gives them in different places. Where no end group is shown, it is not given here.

Assays:
HLA-A*0301 [1] = molecular target: T1, HLA-A*0301 (Homo sapiens, UniProt P04439); experiment: Stability of peptide-HLA complex, binding at 4° C. and 20° C., HLA-A*0301; settings: for Peptide Binding Stability: HLA-A*0301, IC50 at 20° C. vs 4° C.; for HLA binding Stability (Table 5): HLA type A3
T1 construct: B-cell lines used are: CAA (A*0101), EKR (A*0301), BVR (A*1101), VIJF (A*2401); endogenous in cells; host or cells: B-cell line EKR
Procedure: (§1) Stability of other peptide-HLA complexes was preferably determined as follows. […] Peptides of >50% of the initial complexes was lost within 2 hours were considered unstable. […] The rest was designated as unstable peptide binding.
(§2) Peptides 8-11 residues in length were selected based on typical anchor residues for HLA-A*0101, A*0301, A*1101 and HLA-A*2401 (Rammensee H G et al). The capacity of peptides to bind was tested in a competition based cellular binding assay as previously described (van der Burg S H et al 1995). FL-labeled reference peptides were synthesized as Cys-derivative (van der Burg S H et al 1995). Fluorescence labeled reference peptides used were: YLEPAC(FL)AK (SEQ ID NO: 87) (HLA-A*0101) and KVFPC(FL)ALINK (SEQ ID NO: 88) (HLA-A*1101) (Sette A et al), KVFPC(FL)ALINK (SEQ ID NO: 89) (HLAA*0301) (van der Burg S H et al 1995) and RYLKC(FL)QQLL (SEQ ID NO: 90) (A*2401) (Dai L C et al). B-cell lines used are: CAA (A*0101), EKR (A*0301), BVR (A*1101), VIJF (A*2401). The relative binding capacity of the peptides is expressed as the peptide concentration to inhibit 50% (1050) of the binding of the reference peptide. […] Peptide stabilization for HLA-A*0201 was performed as previously described (van der Burg S H et al, 1996). Peptides of >50% of the initial complexes was lost within 2 hours were considered unstable. Stability of other peptide-HLA complexes was determined as follows. Peptide binding was performed at 4° C. and 20° C. and 1050 were determined. […] The rest was designated as unstable peptide binding.

[2] = molecular target: T2, 20S immuno-proteasomes from mouse B-cell line (RMA) (Mus musculus, UniProt O35955+P28063+P28076); experiment: In vitro proteasome mediated digestion of 30-mers, mass spectrometry, immunoproteasome RMA; format: biochemical; settings: 30 residue long precursor peptides
T2 construct: 20S immuno-proteasomes were purified from a mouse B-cell line (RMA); endogenous in cells; host or cells: RMA cells; 20S proteasome purified from them
Procedure: (§3) In the context of the invention, “being inefficiently processed by a proteasome” preferably means that within the first hour of digestion by a proteasome less than 1% of total digested peptide is found. The processing by a proteasome is preferably assessed by incubating a purified proteasome, more preferably a human proteasome with a peptide comprising the potential CTL epitope (30 amino acid length approximately) in a proteasome digestion buffer during at least one hour at 37° C. The reaction is subsequently stopped by adding trifluoroacetic acid. Analysis of the digested peptides is performed with electrospray ionization mass spectrometry (see example 1). Even more preferably, the human proteasome is an immunoproteasome from B-LCL JY cells (Kessler J H et al. 2001).
(§4) 20S immuno-proteasomes were purified from a mouse B-cell line (RMA) and a human B-LCL cell line (JY) and 20S household proteasomes were purified from human tumor cell line (HeLa) as described (Kessler J H et al 2001). To assess kinetics, digestions were performed with different incubation periods as indicated. Briefly, peptides containing the (potential) CTL epitopes (30 mers, 20 μg) were incubated with 1 μg of purified proteasome at 37° C. for 1 h, 4 h and 24 h in 300 μl proteasome digestion buffer, trifluoroacetic acid (30 μl) was added to stop the digestion and samples were stored at −20° C. before mass spectrometric analysis. Electrospray ionization mass spectrometry was performed on a hybrid quadrupole time-of-flight mass spectromter, a Q-TOF (Micromass), equipped with an on-line nanoelectrospray interface with an approximate flow rate of […] as described (Kessler J H et al 2001). The peaks in the mass spectrum were searched in the digested precursor peptide using the Biolynx/proteins software (Micromass) supplied with the mass spectrometer. The intensity of the peaks in the mass spectra was used to establish the relative amounts of peptides generated after proteasome digestion. The relative amounts of the peptides are given as a percentage of the total amount of peptide digested by the proteasome at the indicated incubation time. Major cleavage sites are defined as more than >1% of total digested peptide within the first hour.

[3] = molecular target: T3, 20S immuno-proteasomes from human B-LCL cell line (JY) (Homo sapiens, UniProt P28062+P28065+P40306); experiment: In vitro proteasome mediated digestion of 30-mers, mass spectrometry, immunoproteasome JY; format: biochemical; settings: 30 residue long precursor peptides
T3 construct: purified from a mouse B-cell line (RMA) and a human B-LCL cell line (JY); endogenous in cells; host or cells: B-LCL JY cells; 20S proteasome purified from them
Procedure: as §3, §4

HLA-A*0301 [4] = molecular target: T1, HLA-A*0301; experiment: Competition based cellular binding assay, HLA-A*0301 (B-cell line EKR); settings: for Peptide Binding Affinity / IC50: HLA-A*0301, IC50 category; for HLA binding Affinity (Table 5): HLA type A3; for IC50: read-out: Peptide Binding Affinity
HLA-A*1101 [5] = molecular target: T4, HLA-A*1101 (Homo sapiens, UniProt P04439, A114D/D185E/E176A/F33Y/L180Q/S129P/T187R); experiment: Competition based cellular binding assay, HLA-A*1101 (B-cell line BVR); settings: for HLA binding Affinity (Table 5): HLA type A11
T4 construct: B-cell lines used are: CAA (A*0101), EKR (A*0301), BVR (A*1101), VIJF (A*2401); endogenous in cells; host or cells: B-cell line BVR

HLA-A*1101 [6] = molecular target: T4, HLA-A*1101; experiment: Stability of peptide-HLA complex, binding at 4° C. and 20° C., HLA-A*1101; settings: for HLA binding Stability (Table 5): HLA type A11; for Peptide Binding Stability: HLA-A*1101, IC50 at 20° C. vs 4° C.
Procedure: as §1, §2

[7] = HLA-A*1101, IC50 category, read-out: Peptide Binding Affinity

Compound	Peptide Binding Stability (HLA-A*0301 [1])	Proteasomal Cleavage of C-terminus, IP (RMA) [2]	Proteasomal Cleavage of C-terminus, IP (JY) [3]	Peptide Binding Affinity (HLA-A*0301 [4])	HLA binding Stability (Table 5) (HLA-A*0301 [1])	HLA binding Affinity (Table 5) (HLA-A*0301 [4])	IC50 (HLA-A*0301 [4]) [µM]	HLA binding Affinity (Table 5) (HLA-A*1101 [5])	Peptide Binding Affinity (HLA-A*1101 [5]; HLA-A*1101, IC50 category)	HLA binding Stability (Table 5) (HLA-A*1101 [6])	Peptide Binding Stability (HLA-A*1101 [6])	IC50 (HLA-A*1101 [5]; [7]) [µM]	IC50 (HLA-A*1101 [5]) [µM]
CC(C)C[C@H](NC(=O)[C@H](Cc1ccccc1)NC(=O)CNC(=O)[C@H](CC(C)C)NC(=O)[C@@H](N)CCCNC(=N)N)C(=O)N[C@@H](Cc1c[nH]cn1)C(=O)N[C@@H](CO)C(=O)NCC(=O)N[C@H](C(=O)N[C@@H](C)C(=O)N[C@@H](CCCCN)C(=O)O)[C@@H](C)O [p53 110-120]	+ (Stable peptides displayed IC50 at 20 °C that deviated <2 times of the IC50 at 4° C.)	+ (Major cleavage sites are defined as more than >1% of total digested peptide within the first hour)	+ (Major cleavage sites are defined as more than >1% of total digested peptide within the first hour)	high									
CC(C)C[C@H](NC(=O)[C@@H](N)Cc1ccccc1)C(=O)N[C@@H](Cc1c[nH]cn1)C(=O)N[C@@H](CO)C(=O)NCC(=O)N[C@H](C(=O)N[C@@H](C)C(=O)N[C@@H](CCCCN)C(=O)O)[C@@H](C)O [p53 113-120]	+/− (Peptides that displayed IC50 at 20 °C of more than twice the IC50 at 4 °C but IC50 < 15 μM were considered to bind with intermediate stability.)	+ (Major cleavage sites are defined as more than >1% of total digested peptide within the first hour)	+ (Major cleavage sites are defined as more than >1% of total digested peptide within the first hour)		− (The rest was designated as unstable peptide binding.)	int	5 to 15						
C[C@@H](O)[C@H](NC(=O)[C@@H](N)CC(N)=O)C(=O)N[C@@H](CO)C(=O)N[C@@H](CO)C(=O)N[C@@H](CO)C(=O)N1CCC[C@H]1C(=O)N[C@@H](CCC(N)=O)C(=O)N1CCC[C@H]1C(=O)N[C@@H](CCCCN)C(=O)O [p53 311-319]								high	high	+/− (Peptides that displayed IC50 at 20 °C of more than twice the IC50 at 4 °C but IC50 < 15 μM were considered to bind with intermediate stability.)	+/− (Peptides that displayed IC50 at 20 °C of more than twice the IC50 at 4 °C but IC50 < 15 μM were considered to bind with intermediate stability.)		
C[C@@H](O)[C@H](NC(=O)[C@@H](N)CC(N)=O)C(=O)N[C@@H](CO)C(=O)N[C@@H](CO)C(=O)N[C@@H](CO)C(=O)N1CCC[C@H]1C(=O)N[C@@H](CCC(N)=O)C(=O)N1CCC[C@H]1C(=O)N[C@@H](CCCCN)C(=O)N[C@@H](CCCCN)C(=O)O [p53 311-320]								high	high	+/− (Peptides that displayed IC50 at 20 °C of more than twice the IC50 at 4 °C but IC50 < 15 μM were considered to bind with intermediate stability.)	+/− (Peptides that displayed IC50 at 20 °C of more than twice the IC50 at 4 °C but IC50 < 15 μM were considered to bind with intermediate stability.)		
C[C@@H](O)[C@H](N)C(=O)N[C@@H](CO)C(=O)N[C@@H](CO)C(=O)N[C@@H](CO)C(=O)N1CCC[C@H]1C(=O)N[C@@H](CCC(N)=O)C(=O)N1CCC[C@H]1C(=O)N[C@@H](CCCCN)C(=O)O [p53 312-319]								high	high	+/− (Peptides that displayed IC50 at 20 °C of more than twice the IC50 at 4 °C but IC50 < 15 μM were considered to bind with intermediate stability.)	+/− (Peptides that displayed IC50 at 20 °C of more than twice the IC50 at 4 °C but IC50 < 15 μM were considered to bind with intermediate stability.)		
CC(C)C[C@H](NC(=O)[C@H](Cc1c[nH]cn1)NC(=O)[C@H](CO)NC(=O)[C@H](CO)NC(=O)[C@H](Cc1c[nH]cn1)NC(=O)[C@H](C)NC(=O)[C@@H](N)CCCNC(=N)N)C(=O)N[C@@H](CCCCN)C(=O)O [p53 363-370]	+ (Stable peptides displayed IC50 at 20 °C that deviated <2 times of the IC50 at 4° C.)			high	+ (Stable peptides displayed IC50 at 20 °C that deviated <2 times of the IC50 at 4° C.)	high		int		+/− (Peptides that displayed IC50 at 20 °C of more than twice the IC50 at 4 °C but IC50 < 15 μM were considered to bind with intermediate stability.)	+/− (Peptides that displayed IC50 at 20 °C of more than twice the IC50 at 4 °C but IC50 < 15 μM were considered to bind with intermediate stability.)	5 to 15	
GFLHSGTAK [p53 112-120]	− (The rest was designated as unstable peptide binding.)	+ (Major cleavage sites are defined as more than >1% of total digested peptide within the first hour)	+ (Major cleavage sites are defined as more than >1% of total digested peptide within the first hour)		− (The rest was designated as unstable peptide binding.)	int	5 to 15	int		− (The rest was designated as unstable peptide binding.)	− (The rest was designated as unstable peptide binding.)	5 to 15	
GQSTSRHKK [p53 374-382]								int		+/− (Peptides that displayed IC50 at 20 °C of more than twice the IC50 at 4 °C but IC50 < 15 μM were considered to bind with intermediate stability.)	+/− (Peptides that displayed IC50 at 20 °C of more than twice the IC50 at 4 °C but IC50 < 15 μM were considered to bind with intermediate stability.)		5 to 15
RTEEENLRK [p53 283-291]								int		+/− (Peptides that displayed IC50 at 20 °C of more than twice the IC50 at 4 °C but IC50 < 15 μM were considered to bind with intermediate stability.)	+/− (Peptides that displayed IC50 at 20 °C of more than twice the IC50 at 4 °C but IC50 < 15 μM were considered to bind with intermediate stability.)	5 to 15	
